# Measured values: PubChem BioAssay AID330 (DTP/NCI, 2004)
# Several values for one entry are separate records, joined by “and”; a condition that tells them apart may be missing. Identical values can stand only once. Inconclusive results and toxic doses are left out.
# System: P388 leukemia ip, CD2F1 mice, survival T/C
# Test: NCI In Vivo Anticancer Drug Screen. Data for tumor model P388 Leukemia (intraperitoneal) in CD2F1 (CDF1) mice
# Conditions: endpoint: median survival time, higher = longer survival
# Summary of the method: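 Mice carrying the transplanted tumor received test compound or vehicle. Survival was recorded in each group, and the value is the treated-group measurement divided by that of the vehicle-treated control group.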
# [1] = dose: 50.0 mg/kg/injection, schedule: Q01DX005 (ip), vehicle: saline
# [2] = dose: 60.0 mg/kg/injection, schedule: Q01DX005 (ip), vehicle: saline with Tween-80
# [3] = dose: 50.0 mg/kg/injection, schedule: Q01DX005 (ip), vehicle: saline with Tween-80
# [4] = dose: 100.0 mg/kg/injection, schedule: Q01DX005 (ip), vehicle: saline with Tween-80
# [5] = dose: 50.0 mg/kg/injection, schedule: Q04DX003 (ip), vehicle: saline
# [6] = dose: 100.0 mg/kg/injection, schedule: Q04DX003 (ip), vehicle: saline
# [7] = dose: 200.0 mg/kg/injection, schedule: Q04DX003 (ip), vehicle: saline
# [8] = dose: 50.0 mg/kg/injection, schedule: Q01DX005 (ip), vehicle: Klucel (hydroxypropylcellulose) (HPC)
# [9] = dose: 100.0 mg/kg/injection, schedule: Q01DX005 (ip), vehicle: Klucel (hydroxypropylcellulose) (HPC)
# [10] = dose: 200.0 mg/kg/injection, schedule: Q01DX005 (ip), vehicle: Klucel (hydroxypropylcellulose) (HPC)
# [11] = dose: 200.0 mg/kg/injection, schedule: Q01DX005 (ip), vehicle: saline with Tween-80
# [12] = dose: 12.5 mg/kg/injection, schedule: Q01DX005 (ip), vehicle: saline with Tween-80
# [13] = dose: 25.0 mg/kg/injection, schedule: Q01DX005 (ip), vehicle: saline with Tween-80
compound,measurement,setting,value
CN1CCN(CCCNN)CC1,T/C,[1],93 % of control
same,T/C,"dose: 100.0 mg/kg/injection, schedule: Q01DX005 (ip), vehicle: saline",101 % of control
same,T/C,"dose: 200.0 mg/kg/injection, schedule: Q01DX005 (ip), vehicle: saline",101 % of control
COc1ccc2c(c1)c(CC(N)=O)c(C)n2C(=O)c1ccc(Cl)nc1,T/C,"dose: 52.75 mg/kg/injection, schedule: Q01DX005 (ip), vehicle: saline with Tween-80",94 % of control
same,T/C,"dose: 105.5 mg/kg/injection, schedule: Q01DX005 (ip), vehicle: saline with Tween-80",92 % of control
C[NH-].C[NH-].[Cl][Pt+2][Cl],T/C,"dose: 12.5 mg/kg/injection, schedule: Q01DX009 (ip), vehicle: saline",113 % of control
CCn1cc(C(=O)O)c(=O)c2nc(N3CCOCC3)sc21,T/C,[2],106 % of control
same,T/C,"dose: 120.0 mg/kg/injection, schedule: Q01DX005 (ip), vehicle: saline with Tween-80",95 % of control
same,T/C,"dose: 240.0 mg/kg/injection, schedule: Q01DX005 (ip), vehicle: saline with Tween-80",98 % of control
COC(=O)CS(=O)(=O)CCCCS(=O)(=O)CC(=O)OC,T/C,"dose: 50.0 mg/kg/injection, schedule: Q01DX009 (ip), vehicle: saline",99 % of control
same,T/C,"dose: 100.0 mg/kg/injection, schedule: Q01DX009 (ip), vehicle: saline",99 % of control
same,T/C,"dose: 200.0 mg/kg/injection, schedule: Q01DX009 (ip), vehicle: saline",103 % of control
O=C1C2=C(OCCO2)C(=O)C2=C1OCCO2,T/C,"dose: 100.0 mg/kg/injection, schedule: Q04DX002 (ip), vehicle: saline with Tween-80",99 % of control
same,T/C,"dose: 200.0 mg/kg/injection, schedule: Q04DX002 (ip), vehicle: saline with Tween-80",111 % of control
same,T/C,"dose: 400.0 mg/kg/injection, schedule: Q04DX002 (ip), vehicle: saline with Tween-80",106 % of control
O=C(NC1CCCCC1)C1C(=O)C(=O)N(C2CCCCC2)C1=O (stereo unspecified),T/C,[3],105 % of control
same,T/C,[4],98 % of control
COC(=O)c1c(C(=O)Cc2cc3c(cc2CCN(C)C)OCO3)ccc(OC)c1OC,T/C,"dose: 12.5 mg/kg/injection, schedule: Q01DX001 (ip), vehicle: saline + alcohol",99 % of control
same,T/C,"dose: 25.0 mg/kg/injection, schedule: Q01DX001 (ip), vehicle: saline + alcohol",100 % of control
same,T/C,"dose: 50.0 mg/kg/injection, schedule: Q01DX001 (ip), vehicle: saline + alcohol",101 % of control
NCC(N)Cn1ccnc1 (stereo unspecified),T/C,[5],93 % of control
same,T/C,[6],94 % of control
same,T/C,[7],95 % of control
CN(C)C1C(O)C2Oc3c(cc(O)c4c3C(=O)c3cc5c(c(O)c3C4=O)C(N)CC(C)(O)C5)C(C)(O2)C1O (stereo unspecified),T/C,"dose: 5.0 mg/kg/injection, schedule: Q01DX009 (ip), vehicle: other",118 % of control
CCCCCCCCCCCCCCCCCOC(=O)CCCCCCCCCCCCC,T/C,"dose: 100.0 mg/kg/injection, schedule: Q01DX001 (ip), vehicle: other",100 % of control
same,T/C,"dose: 200.0 mg/kg/injection, schedule: Q01DX001 (ip), vehicle: other",95 % of control
same,T/C,"dose: 400.0 mg/kg/injection, schedule: Q01DX001 (ip), vehicle: other",90 % of control
COC(=O)n1c(=O)oc2c(Br)cc(Br)cc21,T/C,[8],103 % of control
same,T/C,[9],106 % of control
same,T/C,[10],103 % of control
O=c1c2ccccc2[nH]c2cc([N+](=O)[O-])cc([N+](=O)[O-])c12,T/C,[3],90 % of control
same,T/C,[4],90 % of control
same,T/C,[11],98 % of control
CC(SCCCCCCCCCCSC(C)C(=O)O)C(=O)O (stereo unspecified),T/C,[8],93 % of control
same,T/C,[9],98 % of control
same,T/C,[10],95 % of control
O=C(Nc1ccccc1Cl)Oc1ccc(C(=O)c2ccccc2)cc1,T/C,"dose: 15.0 mg/kg/injection, schedule: Q01DX005 (ip), vehicle: saline with Tween-80",100 % of control
same,T/C,"dose: 30.0 mg/kg/injection, schedule: Q01DX005 (ip), vehicle: saline with Tween-80",97 % of control
same,T/C,[2],90 % of control
CC(=O)NCCc1ccc(OC(C)=O)c(OC(C)=O)c1,T/C,[3],99 % of control
same,T/C,[4],103 % of control
same,T/C,[11],107 % of control
O=C(O)Cc1ccc2c(c1O)C(=O)c1ccccc1C2=O,T/C,"dose: 12.5 mg/kg/injection, schedule: Q01DX005 (ip), vehicle: saline",98 % of control
same,T/C,"dose: 25.0 mg/kg/injection, schedule: Q01DX005 (ip), vehicle: saline",104 % of control
same,T/C,[3],112 % of control
same,T/C,[1],107 % of control
COC(=O)C(C)CSc1ccccc1 (stereo unspecified),T/C,"dose: 60.0 mg/kg/injection, schedule: Q01DX005 (ip), vehicle: saline",99 % of control
same,T/C,"dose: 120.0 mg/kg/injection, schedule: Q01DX005 (ip), vehicle: saline",107 % of control
CCCCN(CCCC)CC(C)(C)C(O)c1ccc(OC)c2ccccc12 (stereo unspecified),T/C,[12],106 % of control
same,T/C,[13],106 % of control
same,T/C,[3],101 % of control and 103 % of control
COC(=O)C(Cc1ccccc1C#N)(OC)OC,T/C,[3],98 % of control
same,T/C,[4],101 % of control
same,T/C,[11],98 % of control
CCOC(=O)C(Cc1ccc(Oc2nc3ccccc3o2)cc1)NC(C)=O (stereo unspecified),T/C,"dose: 25.0 mg/kg/injection, schedule: Q01DX001 (ip), vehicle: Klucel (hydroxypropylcellulose) (HPC)",110 % of control
same,T/C,"dose: 50.0 mg/kg/injection, schedule: Q01DX001 (ip), vehicle: Klucel (hydroxypropylcellulose) (HPC)",112 % of control
same,T/C,"dose: 100.0 mg/kg/injection, schedule: Q01DX001 (ip), vehicle: Klucel (hydroxypropylcellulose) (HPC)",109 % of control
Cc1cc(C)n(-c2ccc(-c3cc(=O)c4ccccc4o3)cc2)n1,T/C,[3],92 % of control
same,T/C,[4],90 % of control
c1ccc(Cn2ccnc2)nc1,T/C,[5],103 % of control
same,T/C,[6],100 % of control
same,T/C,[7],101 % of control
Cc1ccc(O)c2c(NCCCCCCNc3cc(C)[n+](C)c4c(C)ccc(O)c34)cc(C)[n+](C)c12,T/C,[12],99 % of control
same,T/C,[13],112 % of control
same,T/C,[3],92 % of control
CCOC(=O)CCC(NC(=O)c1ccc(NCc2ccc3nc(N)nc(N)c3c2C)cc1)C(=O)OCC (stereo unspecified),T/C,"dose: 0.01 mg/kg/injection, schedule: Q01DX009 (ip), vehicle: saline + alcohol",108 % of control and 109 % of control
same,T/C,"dose: 0.02 mg/kg/injection, schedule: Q01DX009 (ip), vehicle: saline + alcohol",98 % of control and 113 % of control
same,T/C,"dose: 0.03 mg/kg/injection, schedule: Q01DX009 (ip), vehicle: saline + alcohol",153 % of control and 162 % of control
same,T/C,"dose: 0.06 mg/kg/injection, schedule: Q01DX001 (ip), vehicle: saline + alcohol",100 % of control and 88 % of control
same,T/C,"dose: 0.06 mg/kg/injection, schedule: Q01DX009 (ip), vehicle: saline + alcohol",170 % of control
same,T/C,"dose: 0.13 mg/kg/injection, schedule: Q01DX001 (ip), vehicle: saline + alcohol",111 % of control and 117 % of control
same,T/C,"dose: 0.25 mg/kg/injection, schedule: Q01DX001 (ip), vehicle: saline + alcohol",109 % of control and 110 % of control
O=C(Nc1ccc(Cl)cc1)Nc1ccc(Cl)nn1,T/C,"dose: 3.12 mg/kg/injection, schedule: Q04DX002 (ip), vehicle: Klucel (hydroxypropylcellulose) (HPC)",101 % of control
same,T/C,"dose: 6.25 mg/kg/injection, schedule: Q04DX002 (ip), vehicle: Klucel (hydroxypropylcellulose) (HPC)",102 % of control
same,T/C,"dose: 12.5 mg/kg/injection, schedule: Q04DX002 (ip), vehicle: Klucel (hydroxypropylcellulose) (HPC)",98 % of control
same,T/C,"dose: 25.0 mg/kg/injection, schedule: Q04DX002 (ip), vehicle: Klucel (hydroxypropylcellulose) (HPC)",115 % of control
same,T/C,"dose: 50.0 mg/kg/injection, schedule: Q04DX002 (ip), vehicle: Klucel (hydroxypropylcellulose) (HPC)",90 % of control
same,T/C,"dose: 100.0 mg/kg/injection, schedule: Q04DX002 (ip), vehicle: Klucel (hydroxypropylcellulose) (HPC)",88 % of control and 95 % of control
CCC1(CC)NC(=O)[C@H](C)N1S(C)(=O)=O,T/C,[3],100 % of control
same,T/C,[4],96 % of control
same,T/C,[11],89 % of control
